# In BindingDB's records for patent US9556111 (UNIVERSITETET I OSLO, 2017):
# Biological target: A-kinase anchor protein 7 isoform gamma (Human, UniProt Q9P0M2)
# Assay: Binding Assay
# Description: Stable and optimal assay conditions were determined by cross-titrating GST-AKAP18δ and biotinylated PLB using 10 μg/ml glutathione acceptor beads and 10 μg/ml streptavidin donor beads in an AlphaScreen assay. The excitation wavelength was 680 nm, with the emission wavelength being 520-560 nm. Signal intensity in each well was registered and the optimal concentration to use was chosen to be the concentration prior to the peak of the signal.
# Sequence of A-kinase anchor protein 7 isoform gamma (Q9P0M2 whole entry, canonical isoform): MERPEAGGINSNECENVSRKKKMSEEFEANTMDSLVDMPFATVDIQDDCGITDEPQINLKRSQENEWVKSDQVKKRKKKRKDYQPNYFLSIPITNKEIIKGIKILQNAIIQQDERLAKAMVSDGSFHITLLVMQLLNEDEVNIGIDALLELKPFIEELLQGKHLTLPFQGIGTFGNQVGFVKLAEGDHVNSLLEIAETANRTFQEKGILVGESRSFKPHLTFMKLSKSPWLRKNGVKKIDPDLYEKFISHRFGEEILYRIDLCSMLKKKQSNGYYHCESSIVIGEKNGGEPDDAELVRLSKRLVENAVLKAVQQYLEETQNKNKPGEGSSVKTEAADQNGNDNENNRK
smiles,measurement,value
"Cc1ccc(NC(=O)Nc2ccc(CN(Cc3ccc(NC(=O)Nc4ccc(C)cc4)cc3)Cc3ccc(NC(=O)Nc4ccc(C)cc4)cc3)cc2)cc1 [US9556111, Table 1.20]",EC50,5.2 µM
